{"source": "patent US12194124B2", "about": "“Personal care compositions for treating odor causing bacteria and methods for the same” (Colgate-Palmolive Company, priority 2019, dated 2025)", "system": "S. Haemolyticus", "experiment": "Growth inhibition assay in 96-well plate, optical density of S. Haemolyticus", "format": "cell-based, Staphylococcus haemolyticus", "description": "The efficacy of 2-butyl octanol for selectively promoting, inhibiting, reducing, and/or treating bacterial growth was evaluated. Particularly, the efficacy of 2-butyl octanol for selectively promoting, inhibiting, reducing, and/or treating bacterial growth of Corynebacterium and Staphylococcus was evaluated. To evaluate the efficacy, an active solution was prepared by emulsifying 2-butyl octanol with a nonionic surfactant, namely, Polysorbate 80. The active solution included the 2-butyl octanol and the Polysorbate 80 in a ratio of about 83:17. Both positive controls (including no active solution) and negative controls (including no bacteria) were also prepared.\nA 96-well plate was utilized to evaluate the growth of the respective bacteria at varying dilutions. Each of the wells of a 96-well plate was aseptically filled with about 100 μL of Tryptic Soy Broth (TSB). In the first well of each row, about 100 μL of either the active solution (including the 2-butyl octanol and Polysorbate 80) or the desired solvent for the respective positive and negative controls was added to thereby provide a total of about 200 μL in the first well of the each respective row. A multi-channel pipette was then utilized to prepare a two-fold dilution in each column. Specifically, a multi-channel pipette set to about 100 μL was utilized to mix and transfer about 100 μL of the 200 μL from the wells of the first column to the respective wells of a subsequent column. This was repeated for each of the remaining eleven columns. About 100 μL of the twelfth column was removed, thereby leaving about 100 μL in each of the 96 wells. […] Specifically, a phosphate buffered saline (PBS) was utilized for the negative control. About 100 μL of the respective bacteria adjusted to 0.1 optical density (OD) bacteria was added to all other wells. The well plate was then incubated overnight at about 37° C. in a growth inhibition assay machine. Measurements were taken at about one hour increments.", "data": [{"compound": "CCCCCCC(CO)CCCC", "note": "(stereo not shown) [2-butyl octanol, 2-butyl-1-octanol]", "values": [{"measurement": "Measured Optical Density of S. Haemolyticus", "setting": "0.02% 2-Butyl Octanol, 1 Hour", "value": 0.017}, {"measurement": "Measured Optical Density of S. Haemolyticus", "setting": "0.02% 2-Butyl Octanol, 2 Hour", "value": 0.129}, {"measurement": "Measured Optical Density of S. Haemolyticus", "setting": "0.02% 2-Butyl Octanol, 3 Hour", "value": 0.203}, {"measurement": "Measured Optical Density of S. Haemolyticus", "setting": "0.02% 2-Butyl Octanol, 4 Hour", "value": 0.218}, {"measurement": "Measured Optical Density of S. Haemolyticus", "setting": "0.02% 2-Butyl Octanol, 5 Hour", "value": 0.272}, {"measurement": "Measured Optical Density of S. Haemolyticus", "setting": "0.02% 2-Butyl Octanol, 6 Hour", "value": 0.34}, {"measurement": "Measured Optical Density of S. Haemolyticus", "setting": "0.02% 2-Butyl Octanol, 7 Hour", "value": 0.426}, {"measurement": "Measured Optical Density of S. Haemolyticus", "setting": "0.02% 2-Butyl Octanol, 8 Hour", "value": 0.503}, {"measurement": "Measured Optical Density of S. Haemolyticus", "setting": "0.02% 2-Butyl Octanol, 9 Hour", "value": 0.558}, {"measurement": "Measured Optical Density of S. Haemolyticus", "setting": "0.02% 2-Butyl Octanol, 10 Hour", "value": 0.616}, {"measurement": "Measured Optical Density of S. Haemolyticus", "setting": "0.02% 2-Butyl Octanol, 11 Hour", "value": 0.649}, {"measurement": "Measured Optical Density of S. Haemolyticus", "setting": "0.02% 2-Butyl Octanol, 12 Hour", "value": 0.671}, {"measurement": "Measured Optical Density of S. Haemolyticus", "setting": "0.02% 2-Butyl Octanol, 13 Hour", "value": 0.702}, {"measurement": "Measured Optical Density of S. Haemolyticus", "setting": "0.02% 2-Butyl Octanol, 14 Hour", "value": 0.719}, {"measurement": "Measured Optical Density of S. Haemolyticus", "setting": "0.02% 2-Butyl Octanol, 15 Hour", "value": 0.724}, {"measurement": "Measured Optical Density of S. Haemolyticus", "setting": "0.02% 2-Butyl Octanol, 16 Hour", "value": 0.735}, {"measurement": "Measured Optical Density of S. Haemolyticus", "setting": "0.02% 2-Butyl Octanol, 17 Hour", "value": 0.748}, {"measurement": "Measured Optical Density of S. Haemolyticus", "setting": "0.02% 2-Butyl Octanol, 18 Hour", "value": 0.751}, {"measurement": "Measured Optical Density of S. Haemolyticus", "setting": "0.04% 2-Butyl Octanol, 1 Hour", "value": 0.026}, {"measurement": "Measured Optical Density of S. Haemolyticus", "setting": "0.04% 2-Butyl Octanol, 2 Hour", "value": 0.153}, {"measurement": "Measured Optical Density of S. Haemolyticus", "setting": "0.04% 2-Butyl Octanol, 3 Hour", "value": 0.237}, {"measurement": "Measured Optical Density of S. Haemolyticus", "setting": "0.04% 2-Butyl Octanol, 4 Hour", "value": 0.247}, {"measurement": "Measured Optical Density of S. Haemolyticus", "setting": "0.04% 2-Butyl Octanol, 5 Hour", "value": 0.286}, {"measurement": "Measured Optical Density of S. Haemolyticus", "setting": "0.04% 2-Butyl Octanol, 6 Hour", "value": 0.328}, {"measurement": "Measured Optical Density of S. Haemolyticus", "setting": "0.04% 2-Butyl Octanol, 7 Hour", "value": 0.389}, {"measurement": "Measured Optical Density of S. Haemolyticus", "setting": "0.04% 2-Butyl Octanol, 8 Hour", "value": 0.453}, {"measurement": "Measured Optical Density of S. Haemolyticus", "setting": "0.04% 2-Butyl Octanol, 9 Hour", "value": 0.514}, {"measurement": "Measured Optical Density of S. Haemolyticus", "setting": "0.04% 2-Butyl Octanol, 10 Hour", "value": 0.56}, {"measurement": "Measured Optical Density of S. Haemolyticus", "setting": "0.04% 2-Butyl Octanol, 11 Hour", "value": 0.596}, {"measurement": "Measured Optical Density of S. Haemolyticus", "setting": "0.04% 2-Butyl Octanol, 12 Hour", "value": 0.619}, {"measurement": "Measured Optical Density of S. Haemolyticus", "setting": "0.04% 2-Butyl Octanol, 13 Hour", "value": 0.624}, {"measurement": "Measured Optical Density of S. Haemolyticus", "setting": "0.04% 2-Butyl Octanol, 14 Hour", "value": 0.635}, {"measurement": "Measured Optical Density of S. Haemolyticus", "setting": "0.04% 2-Butyl Octanol, 15 Hour", "value": 0.656}, {"measurement": "Measured Optical Density of S. Haemolyticus", "setting": "0.04% 2-Butyl Octanol, 16 Hour", "value": 0.657}, {"measurement": "Measured Optical Density of S. Haemolyticus", "setting": "0.04% 2-Butyl Octanol, 17 Hour", "value": 0.671}, {"measurement": "Measured Optical Density of S. Haemolyticus", "setting": "0.04% 2-Butyl Octanol, 18 Hour", "value": 0.676}, {"measurement": "Measured Optical Density of S. Haemolyticus", "setting": "0.08% 2-Butyl Octanol, 1 Hour", "value": 0.039}, {"measurement": "Measured Optical Density of S. Haemolyticus", "setting": "0.08% 2-Butyl Octanol, 2 Hour", "value": 0.205}, {"measurement": "Measured Optical Density of S. Haemolyticus", "setting": "0.08% 2-Butyl Octanol, 3 Hour", "value": 0.308}, {"measurement": "Measured Optical Density of S. Haemolyticus", "setting": "0.08% 2-Butyl Octanol, 4 Hour", "value": 0.317}, {"measurement": "Measured Optical Density of S. Haemolyticus", "setting": "0.08% 2-Butyl Octanol, 5 Hour", "value": 0.355}, {"measurement": "Measured Optical Density of S. Haemolyticus", "setting": "0.08% 2-Butyl Octanol, 6 Hour", "value": 0.401}, {"measurement": "Measured Optical Density of S. Haemolyticus", "setting": "0.08% 2-Butyl Octanol, 7 Hour", "value": 0.462}, {"measurement": "Measured Optical Density of S. Haemolyticus", "setting": "0.08% 2-Butyl Octanol, 8 Hour", "value": 0.53}, {"measurement": "Measured Optical Density of S. Haemolyticus", "setting": "0.08% 2-Butyl Octanol, 9 Hour", "value": 0.58}, {"measurement": "Measured Optical Density of S. Haemolyticus", "setting": "0.08% 2-Butyl Octanol, 10 Hour", "value": 0.614}, {"measurement": "Measured Optical Density of S. Haemolyticus", "setting": "0.08% 2-Butyl Octanol, 11 Hour", "value": 0.637}, {"measurement": "Measured Optical Density of S. Haemolyticus", "setting": "0.08% 2-Butyl Octanol, 12 Hour", "value": 0.647}, {"measurement": "Measured Optical Density of S. Haemolyticus", "setting": "0.08% 2-Butyl Octanol, 13 Hour", "value": 0.673}, {"measurement": "Measured Optical Density of S. Haemolyticus", "setting": "0.08% 2-Butyl Octanol, 14 Hour", "value": 0.683}, {"measurement": "Measured Optical Density of S. Haemolyticus", "setting": "0.08% 2-Butyl Octanol, 15 Hour", "value": 0.693}, {"measurement": "Measured Optical Density of S. Haemolyticus", "setting": "0.08% 2-Butyl Octanol, 16 Hour", "value": 0.708}, {"measurement": "Measured Optical Density of S. Haemolyticus", "setting": "0.08% 2-Butyl Octanol, 17 Hour", "value": 0.733}, {"measurement": "Measured Optical Density of S. Haemolyticus", "setting": "0.08% 2-Butyl Octanol, 18 Hour", "value": 0.744}, {"measurement": "Measured Optical Density of S. Haemolyticus", "setting": "0.16% 2-Butyl Octanol, 1 Hour", "value": 0.049}, {"measurement": "Measured Optical Density of S. Haemolyticus", "setting": "0.16% 2-Butyl Octanol, 2 Hour", "value": 0.175}, {"measurement": "Measured Optical Density of S. Haemolyticus", "setting": "0.16% 2-Butyl Octanol, 3 Hour", "value": 0.26}, {"measurement": "Measured Optical Density of S. Haemolyticus", "setting": "0.16% 2-Butyl Octanol, 4 Hour", "value": 0.285}, {"measurement": "Measured Optical Density of S. Haemolyticus", "setting": "0.16% 2-Butyl Octanol, 5 Hour", "value": 0.326}, {"measurement": "Measured Optical Density of S. Haemolyticus", "setting": "0.16% 2-Butyl Octanol, 6 Hour", "value": 0.39}, {"measurement": "Measured Optical Density of S. Haemolyticus", "setting": "0.16% 2-Butyl Octanol, 7 Hour", "value": 0.464}, {"measurement": "Measured Optical Density of S. Haemolyticus", "setting": "0.16% 2-Butyl Octanol, 8 Hour", "value": 0.524}, {"measurement": "Measured Optical Density of S. Haemolyticus", "setting": "0.16% 2-Butyl Octanol, 9 Hour", "value": 0.579}, {"measurement": "Measured Optical Density of S. Haemolyticus", "setting": "0.16% 2-Butyl Octanol, 10 Hour", "value": 0.627}, {"measurement": "Measured Optical Density of S. Haemolyticus", "setting": "0.16% 2-Butyl Octanol, 11 Hour", "value": 0.66}, {"measurement": "Measured Optical Density of S. Haemolyticus", "setting": "0.16% 2-Butyl Octanol, 12 Hour", "value": 0.684}, {"measurement": "Measured Optical Density of S. Haemolyticus", "setting": "0.16% 2-Butyl Octanol, 13 Hour", "value": 0.71}, {"measurement": "Measured Optical Density of S. Haemolyticus", "setting": "0.16% 2-Butyl Octanol, 14 Hour", "value": 0.719}, {"measurement": "Measured Optical Density of S. Haemolyticus", "setting": "0.16% 2-Butyl Octanol, 15 Hour", "value": 0.724}, {"measurement": "Measured Optical Density of S. Haemolyticus", "setting": "0.16% 2-Butyl Octanol, 16 Hour", "value": 0.74}, {"measurement": "Measured Optical Density of S. Haemolyticus", "setting": "0.16% 2-Butyl Octanol, 17 Hour", "value": 0.756}, {"measurement": "Measured Optical Density of S. Haemolyticus", "setting": "0.16% 2-Butyl Octanol, 18 Hour", "value": 0.77}, {"measurement": "growth of S. hominis", "setting": "2-butyl octanol about 0.02 weight % to about 5.2 weight %", "value": "did not inhibit the growth of and/or promoted the growth of"}, {"measurement": "Measured Optical Density of S. Haemolyticus", "setting": "5.2% 2-Butyl Octanol, 1 Hour", "value": 0.198}, {"measurement": "Measured Optical Density of S. Haemolyticus", "setting": "5.2% 2-Butyl Octanol, 2 Hour", "value": 0.254}, {"measurement": "Measured Optical Density of S. Haemolyticus", "setting": "5.2% 2-Butyl Octanol, 3 Hour", "value": 0.345}, {"measurement": "Measured Optical Density of S. Haemolyticus", "setting": "5.2% 2-Butyl Octanol, 4 Hour", "value": 0.383}, {"measurement": "Measured Optical Density of S. Haemolyticus", "setting": "5.2% 2-Butyl Octanol, 5 Hour", "value": 0.396}, {"measurement": "Measured Optical Density of S. Haemolyticus", "setting": "5.2% 2-Butyl Octanol, 6 Hour", "value": 0.384}, {"measurement": "Measured Optical Density of S. Haemolyticus", "setting": "5.2% 2-Butyl Octanol, 7 Hour", "value": 0.403}, {"measurement": "Measured Optical Density of S. Haemolyticus", "setting": "5.2% 2-Butyl Octanol, 8 Hour", "value": 0.477}, {"measurement": "Measured Optical Density of S. Haemolyticus", "setting": "5.2% 2-Butyl Octanol, 9 Hour", "value": 0.549}, {"measurement": "Measured Optical Density of S. Haemolyticus", "setting": "5.2% 2-Butyl Octanol, 10 Hour", "value": 0.603}, {"measurement": "Measured Optical Density of S. Haemolyticus", "setting": "5.2% 2-Butyl Octanol, 11 Hour", "value": 0.622}, {"measurement": "Measured Optical Density of S. Haemolyticus", "setting": "5.2% 2-Butyl Octanol, 12 Hour", "value": 0.639}, {"measurement": "Measured Optical Density of S. Haemolyticus", "setting": "5.2% 2-Butyl Octanol, 13 Hour", "value": 0.654}, {"measurement": "Measured Optical Density of S. Haemolyticus", "setting": "5.2% 2-Butyl Octanol, 14 Hour", "value": 0.681}, {"measurement": "Measured Optical Density of S. Haemolyticus", "setting": "5.2% 2-Butyl Octanol, 15 Hour", "value": 0.699}, {"measurement": "Measured Optical Density of S. Haemolyticus", "setting": "5.2% 2-Butyl Octanol, 16 Hour", "value": 0.722}, {"measurement": "Measured Optical Density of S. Haemolyticus", "setting": "5.2% 2-Butyl Octanol, 17 Hour", "value": 0.742}, {"measurement": "Measured Optical Density of S. Haemolyticus", "setting": "5.2% 2-Butyl Octanol, 18 Hour", "value": 0.752}]}]}
